{
  "source": "patent US4115065A",
  "about": "“Saturation analysis of folate compound with selenium-75 labeled folate” (The Radiochemical Centre Limited, priority 1973, dated 1978)",
  "key": {"[1]": {"system": "porcine serum as binding protein", "experiment": "Example 8: saturation assay, Se75 pteroyl-L-methylselenocysteine label, N5-methyltetrahydrofolate standards, porcine serum binder", "conditions": "0.5 ng label, porcine serum 30 μl", "protocol": "(§1) Standard solutions of N^5 -methyltetrahydrofoate containing 0, 0.25, 0.5, 1, 2 and 4 ng in phosphate-albumin buffer (200 μl) were pipetted in assay tubes. Buffer was also added to `total` and `blank` tubes (400 and 300 μl respectively). To each tube was added pteroyl-L-methylselenocysteine-Se75 (0.5 ng, sp. act. ca 0.24 Ci/m.mole) in 100 μl of buffer. Immediately afterwards β-lactoglobulin (100 μg) in 100 μl of buffer was added to all tubes except the blanks. After 60 minutes incubation at room temperature, a suspension of albumin-coated charcoal in buffer (200 μl) was added at 4° C. to all tubes except the totals. The tubes were centrifuged (2000g for 10 minutes) and the supernate was counted for 300 seconds in an NE8312 beta-gamma counter.\n(§2) Results are expressed in terms of [formula]\n(§3) The protocol of example 4 was used except that a solution (100 μl) containing 30 μl of porcine serum and 70 μl of buffer was used instead of β-lactoglobulin as binding protein."}, "β-lactoglobulin [2]": {"molecular_target": "T1, β-lactoglobulin (Bos taurus, UniProt P02702)", "experiment": "Example 5: saturation assay, Se75 pteroyl-L-methylselenocysteine label, folic acid standards", "type": "binding", "conditions": "0.5 ng label, β-lactoglobulin 100 μg", "protocol": "as §1, §2\nThe protocol of example 4 was used except that folic acid was used as the standard instead of N^5 -methyltetrhydrofolate"}, "β-lactoglobulin [3]": {"molecular_target": "T1, β-lactoglobulin", "experiment": "Example 4: saturation assay for folates, Se75 pteroyl-L-methylselenocysteine label, N5-methyltetrahydrofolate standards", "type": "binding", "conditions": "0.5 ng label, β-lactoglobulin 100 μg", "protocol": "as §1, §2"}, "[4]": {"system": "porcine serum as binding protein", "experiment": "Example 9: saturation assay, Se75 pteroyl-L-methylselenocysteine label, folic acid standards, porcine serum binder", "conditions": "0.5 ng label, porcine serum 30 μl", "protocol": "as §1, §2, §3\nThe protocol of example 8 was used except that folic acid was substituted for N^5 -methyltetrahydrofolate as standard"}, "[5]": {"system": "rabbit anti folic acid antiserum", "experiment": "Example 12: radioimmunoassay for folic acid, Se75 pteroyl-L-methylselenocysteine label", "type": "binding", "conditions": "0.5 ng label, 2 μl rabbit anti folic acid antiserum", "protocol": "(§4) Standard solutions of folic acid containing 0, 0.25, 0.5, 1, 2 and 4 ng in phosphate-albumin buffer (200 μl) were pipetted into assay tubes. Buffer was also added to `total` and `blank` tubes (400 and 300 μl respectively). To each tube was added Se75-pteroyl-L-methylselenocysteine (0.5 ng, sp. act. ca 0.24 Ci/m.mole) in 100 μl of buffer. Immediately afterwards was added, to all tubes except the blanks, 100 μl of buffer containing 2 μl of a 1/15000 titre rabbit anti folic acid antiserum, raised against a conjugate of folic acid with serum albumin.\n(§5) After 60 minutes incubation at room temperature, a suspension of albumin-coated charcoal in buffer (200 μl) was added at 4° C. to all tubes except the totals. The tubes were centrifuged (2000g for 10 minutes) and the supernate was counted for 300 seconds."}, "β-lactoglobulin [6]": {"molecular_target": "T1, β-lactoglobulin", "experiment": "Example 6: saturation assay, Se75 pteroyl-L-selenomethionine label, N5-methyltetrahydrofolate standards", "type": "binding", "conditions": "0.5 ng label", "protocol": "as §1, §2\n(§6) The protocol of example 4 was used except that Se75-pteroyl-L-selenomethionine (0.5ng, sp. act. ca 2.25 Ci/m.mole) was substituted as label for Se75-pteroyl-L-methylselenocysteine."}, "[7]": {"system": "porcine serum as binding protein", "experiment": "Example 11: saturation assay, Se75 pteroyl-L-selenomethionine label, folic acid standards, porcine serum binder", "conditions": "0.5 ng label, porcine serum 30 μl", "protocol": "as §1, §2, §6\nThe protocol of example 6 was used except that folic acid was substituted for N^5 -methyltetrahydrofolate as standard.\nThe protocol of example 10 was used except that a solution containing 30 μl of porcine serum and 70 μl of buffer was substituted for β-lactoglobulin as binding protein."}, "[8]": {"system": "porcine serum as binding protein", "experiment": "Example 7: saturation assay, Se75 pteroyl-L-selenomethionine label, N5-methyltetrahydrofolate standards, porcine serum binder", "conditions": "0.5 ng label, porcine serum 30 μl", "protocol": "as §1, §2, §6\nThe protocol of example 6 was used except that a solution of porcine serum (30 μl) in buffer (70 μl) was substituted for β-lactoglobulin as binding protein."}, "[9]": {"system": "rabbit anti folic acid antiserum", "experiment": "Example 13: radioimmunoassay for folic acid, Se75 pteroyl-L-selenomethionine label", "type": "binding", "conditions": "0.5 ng label", "protocol": "as §4, §5\nThe protocol of example 12 was used except that Se75-pteroyl-L-selenomethionine (0.5ng, sp. act. ca 2.25 Ci/m.mole) was substituted for Se-75-pteroyl-L-methylselenocysteine as label"}, "[10]": {"conditions": "0.25 ng N5 methyltetrahydrofolate"}, "[11]": {"conditions": "0.5 ng N5 methyltetrahydrofolate"}},
  "note": "Values joined by “and” are separate entries in the source; they are usually repeats but may differ in a detail not shown here. Equal entries are not always repeated.",
  "data": [
    {"smiles": "C[75Se]C[C@H](NC(=O)c1ccc(NCc2cnc3nc(N)[nH]c(=O)c3n2)cc1)C(=O)O", "note": "[pteroyl-L-methylselenocysteine-Se75, N-Pteroyl-Se-methyl-L-selenocysteine-Se75]", "values": [
      {"measurement": "Percent of labelled folate bound", "setting": "[1]; 0 ng N5 methyltetrahydrofolate", "value": 89.3, "unit": "%"},
      {"measurement": "Percent of labelled folate bound", "setting": "[1]; [10]", "value": "61.4% and 52.0%"},
      {"measurement": "Percent of labelled folate bound", "setting": "[1]; [11]", "value": "43.3% and 48.1%"},
      {"measurement": "Percent of labelled folate bound", "setting": "[1]; 1 ng N5 methyltetrahydrofolate", "value": "41.2% and 38.9%"},
      {"measurement": "Percent of labelled folate bound", "setting": "[1]; 2 ng N5 methyltetrahydrofolate", "value": "40.9% and 39.3%"},
      {"measurement": "Percent of labelled folate bound", "setting": "[1]; 4 ng N5 methyltetrahydrofolate", "value": "34.5% and 31.0%"},
      {"measurement": "percentage of labelled folate bound", "setting": "β-lactoglobulin [2]; 0 ng folic acid", "value": 95.5, "unit": "%"},
      {"measurement": "percentage of labelled folate bound", "setting": "β-lactoglobulin [2]; 0.25 ng folic acid", "value": "86.1% and 85.6%"},
      {"measurement": "percentage of labelled folate bound", "setting": "β-lactoglobulin [2]; 0.5 ng folic acid", "value": "67.7% and 82.5%"},
      {"measurement": "percentage of labelled folate bound", "setting": "β-lactoglobulin [2]; 1 ng folic acid", "value": "45.5% and 41.4%"},
      {"measurement": "percentage of labelled folate bound", "setting": "β-lactoglobulin [2]; 2 ng folic acid", "value": "28.1% and 32.6%"},
      {"measurement": "percentage of labelled folate bound", "setting": "β-lactoglobulin [2]; 4 ng folic acid", "value": 10.4, "unit": "%"},
      {"measurement": "percentage of labelled folate bound", "setting": "β-lactoglobulin [3]; 0 ng N5 methyltetrahydrofolate, 60 minutes room temperature", "value": 94, "unit": "%"},
      {"measurement": "percentage of labelled folate bound", "setting": "β-lactoglobulin [3]; [10]", "value": "81.8% and 78.0%"},
      {"measurement": "percentage of labelled folate bound", "setting": "β-lactoglobulin [3]; [11]", "value": 81.4, "unit": "%"},
      {"measurement": "percentage of labelled folate bound", "setting": "β-lactoglobulin [3]; 1 ng N5 methyltetrahydrofolate", "value": "78.3% and 78.6%"},
      {"measurement": "percentage of labelled folate bound", "setting": "β-lactoglobulin [3]; 2 ng N5 methyltetrahydrofolate", "value": "51.3% and 58.0%"},
      {"measurement": "percentage of labelled folate bound", "setting": "β-lactoglobulin [3]; 4 ng N5 methyltetrahydrofolate", "value": "44.4% and 34.1%"},
      {"measurement": "Percent of labelled folic acid bound to porcine serum", "setting": "[4]; 0 ng folic acid", "value": 92.7, "unit": "%"},
      {"measurement": "Percent of labelled folic acid bound to porcine serum", "setting": "[4]; 0.25 ng folic acid", "value": "67.1% and 68.7%"},
      {"measurement": "Percent of labelled folic acid bound to porcine serum", "setting": "[4]; 0.5 ng folic acid", "value": "60.9% and 43%"},
      {"measurement": "Percent of labelled folic acid bound to porcine serum", "setting": "[4]; 1 ng folic acid", "value": "26.2% and 31.3%"},
      {"measurement": "Percent of labelled folic acid bound to porcine serum", "setting": "[4]; 2 ng folic acid", "value": "28.0% and 28.3%"},
      {"measurement": "Percent of labelled folic acid bound to porcine serum", "setting": "[4]; 4 ng folic acid", "value": "9% and 2.6%"},
      {"measurement": "Percent of labelled folate bound to antiserum", "setting": "[5]; 0 ng folic acid", "value": 97.6, "unit": "%"},
      {"measurement": "Percent of labelled folate bound to antiserum", "setting": "[5]; 0.25 ng folic acid, listed as Se75-pteroyl-L-methylselenocysteine", "value": "72.4% and 90.9%"},
      {"measurement": "Percent of labelled folate bound to antiserum", "setting": "[5]; 0.5 ng folic acid, listed as Se75-pteroyl-L-methylselenocysteine", "value": "52.5% and 70.3%"},
      {"measurement": "Percent of labelled folate bound to antiserum", "setting": "[5]; 1 ng folic acid, listed as Se75-pteroyl-L-methylselenocysteine", "value": "50.1% and 35.3%"},
      {"measurement": "Percent of labelled folate bound to antiserum", "setting": "[5]; 2 ng folic acid, listed as Se75-pteroyl-L-methylselenocysteine", "value": "20.1% and 29.6%"},
      {"measurement": "Percent of labelled folate bound to antiserum", "setting": "[5]; 4 ng folic acid, listed as Se75-pteroyl-L-methylselenocysteine", "value": "20.1% and 12.8%"}
    ]},
    {"smiles": "C[75Se]CC[C@H](NC(=O)c1ccc(NCc2cnc3nc(N)[nH]c(=O)c3n2)cc1)C(=O)O", "note": "[Se75-pteroyl-L-selenomethionine, N-Pteroyl-L-selenomethionine-Se75]", "values": [
      {"measurement": "Percent of labelled folate bound", "setting": "β-lactoglobulin [6]; 0 ng N5 methyltetrahydrofolate", "value": 49.9, "unit": "%"},
      {"measurement": "Percent of labelled folate bound", "setting": "β-lactoglobulin [6]; [10]", "value": "39.3% and 36.1%"},
      {"measurement": "Percent of labelled folate bound", "setting": "β-lactoglobulin [6]; [11]", "value": "35.9% and 37.3%"},
      {"measurement": "Percent of labelled folate bound", "setting": "β-lactoglobulin [6]; 1 ng N5 methyltetrahydrofolate", "value": "32.6% and 33.0%"},
      {"measurement": "Percent of labelled folate bound", "setting": "β-lactoglobulin [6]; 2 ng N5 methyltetrahydrofolate", "value": 25.9, "unit": "%"},
      {"measurement": "Percent of labelled folate bound", "setting": "β-lactoglobulin [6]; 4 ng N5 methyltetrahydrofolate", "value": "25.4% and 24.1%"},
      {"measurement": "Percent of labelled folate bound", "setting": "[7]; 0 ng folic acid", "value": 35.7, "unit": "%"},
      {"measurement": "Percent of labelled folate bound", "setting": "[7]; 0.25 ng folic acid", "value": "20.3% and 21.1%"},
      {"measurement": "Percent of labelled folate bound", "setting": "[7]; 0.5 ng folic acid", "value": "18.4% and 20.9%"},
      {"measurement": "Percent of labelled folate bound", "setting": "[7]; 1 ng folic acid", "value": "16.8% and 17.3%"},
      {"measurement": "Percent of labelled folate bound", "setting": "[7]; 2 ng folic acid", "value": "13.0% and 13.9%"},
      {"measurement": "Percent of labelled folate bound", "setting": "[7]; 4 ng folic acid", "value": "12.6% and 15.2%"},
      {"measurement": "Percent of labelled folate bound", "setting": "[8]; 0 mg N5 methyltetrahydrofolate", "value": 36.4, "unit": "%"},
      {"measurement": "Percent of labelled folate bound", "setting": "[8]; 4 ng N5 methyltetrahydrofolate", "value": "15.5% and 15.6%"},
      {"measurement": "Percent of labelled folate bound", "setting": "[8]; 0.25 mg N5 methyltetrahydrofolate", "value": 21.3, "unit": "%"},
      {"measurement": "Percent of labelled folate bound", "setting": "[8]; 0.5 mg N5 methyltetrahydrofolate", "value": "17.2% and 17.1%"},
      {"measurement": "Percent of labelled folate bound", "setting": "[8]; 1 mg N5 methyltetrahydrofolate", "value": "20.7% and 18.5%"},
      {"measurement": "Percent of labelled folate bound", "setting": "[8]; 2 mg N5 methyltetrahydrofolate", "value": "19.3% and 17.2%"},
      {"measurement": "Percent of labelled folate bound", "setting": "[9]; 0 ng folic acid", "value": 42.2, "unit": "%"},
      {"measurement": "Percent of labelled folate bound", "setting": "[9]; 0.25 ng folic acid", "value": "25.7% and 27.6%"},
      {"measurement": "Percent of labelled folate bound", "setting": "[9]; 0.5 ng folic acid", "value": "22.1% and 19%"},
      {"measurement": "Percent of labelled folate bound", "setting": "[9]; 1 ng folic acid", "value": "20.8% and 21.9%"},
      {"measurement": "Percent of labelled folate bound", "setting": "[9]; 2 ng folic acid", "value": "16.7% and 15.5%"},
      {"measurement": "Percent of labelled folate bound", "setting": "[9]; 4 ng folic acid", "value": "16% and 13.7%"}
    ]}
  ]
}
